Values quoted from earlier work as cited in publication PMC3726058 (European journal of pharmacology, 2010).
pKi: −log10 of the molar value.

Tests used:
σ1 versus σ2 = details: rat brain membranes; ref Klouz et al., 2003; Matsuno et al., 1996
adrenergic α2 = details: read-out: Ki α2; ref Yous et al., 2005
histamine H1 = details: read-out: Ki H1; ref Yous et al., 2005
σ1 over the σ2 subtype = details: ref Bowen, 1993

SMILES: COc1ccc(CN2CCN(Cc3ccccc3)CC2)c(O)c1OC [BHDP]
- affinity for σ1 versus σ2 (σ1 versus σ2): approximately 100 fold

SMILES: CCCc1ccc2c(c1)sc(=O)n2CCN1CCCCCC1 [SN56, 3-(2-(azepan-1-yl)ethyl)-6-propylbenzo[d]thiazol-2(3H)-one]
- pKi (adrenergic α2): 6.69
- pKi (histamine H1): 6.51

SMILES: COc1ccc(CCN2CCN(CCCc3ccccc3)CC2)cc1OC [SA4503]
- affinity for σ1 versus σ2 (σ1 versus σ2): approximately 100 fold

SMILES: CC(C)=CCN1CC[C@]2(C)c3cc(O)ccc3C[C@H]1[C@H]2C [[^3H](+)-Pentazocine]
- preference for σ1 over σ2 subtype (σ1 over the σ2 subtype): > 700 fold
